The test system of this experiment is 885724-159-R-J1-PDC complex spheroid viability. The experiment in a line: Anticancer human tumor 885724-159-R-J1-PDC patient-derived pancreatic adenocarcinoma cell line growth inhibition [GQUAD]. Particulars: for viability, T/C: stronger effect = lower value. A digest of the protocol:
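Tumor cells were grown as complex spheroids with HUVEC endothelial cells and mesenchymal stem cells as stroma. G-quadruplex stabilizers were combined with targeted agents over half-log dilutions from near the clinical Cmax, or from 10 microM.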

Where [1] appears, read: curve of first compound, second compound 0.0316 µM.
Setting [2] is: curve of first compound, second compound 0.1 µM.
Setting [3] is: curve of first compound, second compound 0.316 µM.
Setting [4] is: curve of first compound, second compound 1 µM.
The mark [5] stands for this setting: curve of first compound, second compound 3.16 µM.
[6] abbreviates: curve of first compound, second compound 10 µM.
Where [7] appears, read: second compound 0.0316 µM, first compound 0.0316 µM.
[8] abbreviates: second compound 0.0316 µM, first compound 0.1 µM.
[9] abbreviates: second compound 0.0316 µM, first compound 0.316 µM.
[10] abbreviates: second compound 0.0316 µM, first compound 1 µM.
The mark [11] stands for this setting: second compound 0.0316 µM, first compound 3.16 µM.
The mark [12] stands for this setting: second compound 0.0316 µM, first compound 10 µM.
Where [13] appears, read: second compound 0.1 µM, first compound 0.0316 µM.
Where [14] appears, read: second compound 0.1 µM, first compound 0.1 µM.
Setting [15] is: second compound 0.1 µM, first compound 0.316 µM.
[16] abbreviates: second compound 0.1 µM, first compound 1 µM.
The mark [17] stands for this setting: second compound 0.1 µM, first compound 3.16 µM.
Where [18] appears, read: second compound 0.1 µM, first compound 10 µM.
Setting [19] is: second compound 0.316 µM, first compound 0.0316 µM.
The mark [20] stands for this setting: second compound 0.316 µM, first compound 0.1 µM.
The mark [21] stands for this setting: second compound 0.316 µM, first compound 0.316 µM.
Where [22] appears, read: second compound 0.316 µM, first compound 1 µM.
[23] abbreviates: second compound 0.316 µM, first compound 3.16 µM.
Where [24] appears, read: second compound 0.316 µM, first compound 10 µM.
[25] abbreviates: second compound 1 µM, first compound 0.0316 µM.
[26] abbreviates: second compound 1 µM, first compound 0.1 µM.
Setting [27] is: second compound 1 µM, first compound 0.316 µM.
Setting [28] is: second compound 1 µM, first compound 1 µM.
[29] abbreviates: second compound 1 µM, first compound 3.16 µM.
Where [30] appears, read: second compound 1 µM, first compound 10 µM.
[31] abbreviates: second compound 3.16 µM, first compound 0.0316 µM.
The mark [32] stands for this setting: second compound 3.16 µM, first compound 0.1 µM.
Setting [33] is: second compound 3.16 µM, first compound 0.316 µM.
The mark [34] stands for this setting: second compound 3.16 µM, first compound 1 µM.
[35] abbreviates: second compound 3.16 µM, first compound 3.16 µM.
The mark [36] stands for this setting: second compound 3.16 µM, first compound 10 µM.
[37] abbreviates: second compound 10 µM, first compound 0.0316 µM.
Setting [38] is: second compound 10 µM, first compound 0.1 µM.
Where [39] appears, read: second compound 10 µM, first compound 0.316 µM.
The mark [40] stands for this setting: second compound 10 µM, first compound 1 µM.
[41] abbreviates: second compound 10 µM, first compound 3.16 µM.
Where [42] appears, read: second compound 10 µM, first compound 10 µM.

One may read the IC50 as the concentration that gives 50% inhibition. One may read the viability, T/C as the ratio of treated to control.

Several values for one entry are separate records, joined by “and”; a condition that tells them apart may be missing. Identical values can stand only once.
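Also: spheroids exposed to agents for seven days before readout.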
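For viability, T/C in this document: percent of vehicle control viability where 100% = DMSO wells.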

On to `CC1COCCN1c1cc(C2(O)CC3CCC(C2)O3)c2cnn(-c3ccn[nH]3)c2n1` (stereo not given) + Cc1[nH]c2ccc(F)cc2c1-c1nc2c3cccnc3c3ncccc3c2[nH]1, for which the IC50 is 1.89 µM under setting [1]; 1.2 µM under setting [2]; 0.865 µM under setting [3]; 0.432 µM under setting [4]; less than 0.0316 µM under setting [5]; 0.512 µM under setting [6]. For the same compound, the viability, T/C is 97.7% under setting [7]; 77.5% under setting [8]; 68.3% under setting [9]; 55.2% under setting [10]; 46% under setting [11]; 37.8% under setting [12]. Also, the viability, T/C was 96.6% under setting [13]; 88% under setting [14]; 74.1% under setting [15]; 50.1% under setting [16]; 42.7% under setting [17]; 37.7% under setting [18]. Also, the viability, T/C by setting is: under setting [19], 91%; under setting [20], 79%; under setting [21], 62.4%; under setting [22], 47.3%; under setting [23], 41.6%; under setting [24], 35.5%. In addition, the viability, T/C was 79.5% under setting [25]; 66% under setting [26]; 54.2% under setting [27]; 38.1% under setting [28]; 37.4% under setting [29]; 25.4% under setting [30]. The viability, T/C under setting [31] is 41.2%; the viability, T/C under setting [32] was 29.9%; the viability, T/C under setting [33] was 41.1%; the viability, T/C under setting [34] is 22.6%; the viability, T/C under setting [35] is 20.1%; the viability, T/C under setting [36] was 8.51%. In addition, the viability, T/C is 69.6% under setting [37]; 69% under setting [38]; 51% under setting [39]; 44.4% under setting [40]; 33.1% under setting [41]; 24.1% under setting [42].
Take `CC1COCCN1c1cc(-c2ccnn2C)c2ccnc(-c3ccn[nH]3)c2n1` (stereo not given) + CN(C)c1ccc(Nc2c3ccc(NC(=O)CCN4CCCC4)cc3nc3cc(NC(=O)CCN4CCCC4)ccc23)cc1: the IC50 under setting [1] is 7.55 µM; the IC50 under setting [2] amounted to 8.81 µM; the IC50 under setting [3] is greater than 10 µM; the IC50 under setting [4] was 2.12 µM; the IC50 under setting [5] came out at 1.68 µM; the IC50 under setting [6] was 1.28 µM. The viability, T/C runs as follows: under setting [7], 91.5%; under setting [8], 85.6%; under setting [9], 71.7%; under setting [10], 65%; under setting [11], 53.7%; under setting [12], 48.7%. Further, the viability, T/C is 99.8% under setting [13]; 87% under setting [14]; 70.9% under setting [15]; 67% under setting [16]; 48.1% under setting [17]; 51.9% under setting [18]. In addition, the viability, T/C is 95.7% under setting [19]; 76.4% under setting [20]; 86.9% under setting [21]; 64.5% under setting [22]; 52.7% under setting [23]; 48.6% under setting [24]. Also, the viability, T/C is, setting by setting: under setting [25], 86.8%; under setting [26], 68.5%; under setting [27], 63.8%; under setting [28], 53.6%; under setting [29], 50%; under setting [30], 42.1%. The viability, T/C under setting [31] is 87.5%; the viability, T/C under setting [32] is 74.8%; the viability, T/C under setting [33] was 72.7%; the viability, T/C under setting [34] was 54.9%; the viability, T/C under setting [35] was 41.8%; the viability, T/C under setting [36] was 39.5%. Moreover, the viability, T/C was 74.2% under setting [37]; 72.3% under setting [38]; 52.8% under setting [39]; 59.5% under setting [40]; 39% under setting [41]; 36.2% under setting [42].
Consider `CC1COCCN1c1cc(C2(S(C)(=N)=O)CC2)nc(-c2ccnc3[nH]ccc23)n1` (stereo not given), for which the viability, T/C reads like this: (compound 0.0316 µM) 105% (2×) and 97.6%; (compound 0.1 µM) 105% and 96.7% and 98.2%; (compound 0.316 µM) 105% and 94.7% and 99.6%; (compound 1 µM) 97.2% and 88.8% and 98.5%; (compound 3.16 µM) 84.7% and 82.4% and 109%; (compound 10 µM) 65.2% and 74.3% and 86.2%. Besides, where the note is “curve of compound”, the IC50 was greater than 10 µM.
In the case of `O=C(NO)c1cnc(N2CCN(S(=O)(=O)c3ccc4ccccc4c3)CC2)nc1`, the viability, T/C by setting is: (compound 0.0316 µM) 90.6% and 97.6% and 84%; (compound 0.1 µM) 98.7% and 96.6% and 80%; (compound 0.316 µM) 94.2% and 85.3% and 72%; (compound 1 µM) 43.3% and 36.8% and 41.2%; (compound 3.16 µM) 1.62% and 0.69% and 11.8%; (compound 10 µM) 0.25% and 0.51% and 0.27%. Besides, the IC50 (curve of compound) was 0.859 µM and 0.726 µM and 0.723 µM.
As for `CC1COCCN1c1cc(-c2ccnn2C)c2ccnc(-c3ccn[nH]3)c2n1` (stereo not given), the viability, T/C by setting is: (compound 0.0316 µM) 104% and 98% and 79.1%; (compound 0.1 µM) 93% and 80.3% and 83.4%; (compound 0.316 µM) 83.2% and 68.7% and 75%; (compound 1 µM) 69.1% and 67.7% and 69.3%; (compound 3.16 µM) 58.6% and 51.1% and 45.9%; (compound 10 µM) 45.6% and 52.2% and 42.1%. Moreover, the IC50 (curve of compound) was 6.76 µM and > 10 µM and 2.65 µM.
